The values below are quoted from earlier work in patent US20240249808A1, “Physiologically Based Toxicokinetic (PBTK) Modeling for Implant Toxicology” (Cyprus University of Technology, priority 2021, published 2024).

The conditions of the data set: parenteral (non-oral) exposure; prolonged or permanent patient exposure; adverse systemic effects except hypersensitivity; CDRH recommended.

For the compound `[Ni]` [nickel], the “Tolerable Intake (TI) value” is 0.5 µg/kg/day.
